Experimental data from the NIST ThermoML archive (doi:10.1016/j.jct.2008.08.013).

Experiment: xn = mol fraction of the nth substance listed
Conditions: 101 kPa, Liquid, Vibrating tube method

ClCCl [dichloromethane] + O=[N+]([O-])c1ccccc1
mass density [kg/m3]
Conditions	288.15 K	293.15 K	298.15 K	303.15 K
x1 = 0.021	1213.16	1204.27	1199.65	1195.1
x1 = 0.1053	1219.99	1211.21	1206.52	1201.87
x1 = 0.2003	1228.35	1219.76	1214.95	1210.13
x1 = 0.2499	1233.02	1224.51	1219.62	1214.69
x1 = 0.3003	1238.01	1229.63	1224.61	1219.55
x1 = 0.3521	1243.35	1235.09	1229.95	1224.73
x1 = 0.4025	1248.78	1240.64	1235.37	1229.98
x1 = 0.4492	1254.01	1245.99	1240.56	1235.01
x1 = 0.4975	1259.65	1251.71	1246.14	1240.37
x1 = 0.5512	1266.13	1258.32	1252.51	1246.51
x1 = 0.5995	1272.2	1264.47	1258.48	1252.21
x1 = 0.6495	1278.7	1271.04	1264.8	1258.26
x1 = 0.6999	1285.45	1277.91	1271.39	1264.55
x1 = 0.7496	1292.42	1284.93	1278.12	1270.91
x1 = 0.799	1299.65	1292.18	1285	1277.46
x1 = 0.8501	1307.44	1299.97	1292.47	1284.49
x1 = 0.8975	1315.12	1307.6	1299.69	1291.27
x1 = 0.9798	1329.58	1321.91	1313.24	1303.98
